Measured values: the NIST ThermoML archive (doi:10.1016/j.fluid.2007.01.033)
± gives the expanded uncertainty stated by the source.

How the values were obtained:
[1] = refractive index (Na D-line) (dimensionless); conditions: 298.15 K; 101.33 kPa; Liquid; Standard Abbe refractometry
[2] = xn = mol fraction of the nth substance listed; conditions: 313.15 K, Liquid

COC(C)=O [methyl ethanoate]
Conditions	mass density [kg/m3]
298.15 K, 101.33 kPa, Liquid	927.1 ± 0.3

Conditions	Normal boiling temperature [°C]	refractive index
Liquid	56.89 ± 0.17	–
[1]	–	1.3594 ± 0.0007

COC(C)=O [methyl ethanoate] + O=C=O
mass density [kg/m3], [2]
Conditions	1000 kPa	2000 kPa	3000 kPa	4000 kPa	5000 kPa	6000 kPa	7000 kPa	8000 kPa	9000 kPa	10000 kPa
x2 = 0	907.9 ± 0.4	908.9 ± 0.4	909.7 ± 0.4	910.9 ± 0.4	912 ± 0.4	913.1 ± 0.4	914.1 ± 0.5	915.1 ± 0.5	916.1 ± 0.5	917.1 ± 0.5
x2 = 0.1	910 ± 0.4	911.1 ± 0.4	912.4 ± 0.4	913.5 ± 0.4	914.7 ± 0.4	915.9 ± 0.4	917 ± 0.4	918.1 ± 0.5	919.2 ± 0.5	920.3 ± 0.5
x2 = 0.2	–	913.9 ± 0.4	915.2 ± 0.4	916.6 ± 0.4	917.9 ± 0.4	919.1 ± 0.4	920.4 ± 0.4	921.7 ± 0.4	922.9 ± 0.5	924.1 ± 0.5
x2 = 0.3	–	–	–	917.1 ± 0.4	918.6 ± 0.4	920.1 ± 0.4	921.5 ± 0.4	922.9 ± 0.4	924.3 ± 0.5	925.7 ± 0.5
x2 = 0.4	–	–	–	917.4 ± 0.4	919.2 ± 0.4	920.9 ± 0.4	922.7 ± 0.4	924.3 ± 0.4	925.9 ± 0.4	927.5 ± 0.5
x2 = 0.5	–	–	–	–	915.4 ± 0.4	917.5 ± 0.4	919.6 ± 0.4	921.6 ± 0.4	923.7 ± 0.5	925.6 ± 0.5
x2 = 0.6	–	–	–	–	–	909 ± 0.5	912.8 ± 0.5	915.5 ± 0.5	918.1 ± 0.5	920.7 ± 0.5
x2 = 0.7	–	–	–	–	–	891.8 ± 0.5	895.9 ± 0.5	899.7 ± 0.5	903.5 ± 0.5	907 ± 0.5
x2 = 0.8	–	–	–	–	–	–	861.5 ± 0.6	868.2 ± 0.6	873.8 ± 0.7	879.5 ± 0.7
x2 = 0.9	–	–	–	–	–	–	–	793.5 ± 0.9	808 ± 0.9	820.3 ± 0.9
x2 = 0.95	–	–	–	–	–	–	–	–	734.6 ± 1.2	759.7 ± 1.2

O=C=O [carbon dioxide]
313.15 K, Fluid (supercritical or subcritical phases)
Conditions	mass density [kg/m3]
1000 kPa	17.9 ± 0.2
2000 kPa	37.1 ± 0.3
3000 kPa	58.7 ± 0.3
4000 kPa	83.5 ± 0.4
5000 kPa	112.7 ± 0.5
6000 kPa	148.8 ± 0.7
7000 kPa	197.3 ± 0.9
8000 kPa	276.7 ± 1.6
9000 kPa	483.4 ± 2.6
10000 kPa	627.4 ± 2.3
